Experimental data: patent US12668587B2, “Benzimidazolone GLP-1 receptor agonist and use thereof” (HANGZHOU ZHONGMEIHUADONG PHARMACEUTICAL CO., LTD., priority 2020, dated 2026)

Target: Human GLP-1R (Homo sapiens, UniProt P43220)
Test: GLP-1R agonist activity, HTRF cAMP detection in 293A GFP-GLP-1R cells
Set-up: Emax: dose or concentration left out as unconfirmed
Conditions: for Emax: 293A
Method: GLP-1R-mediated agonist activity was determined by cell-based assays using a homogeneous time-resolved fluorescence (i.e., HTRF)-based cAMP detection kit, which measures the level of cAMP in cells. The method was a competitive immunoassay. It enabled direct pharmacological characterization of compounds acting on Gs-coupled receptors in adherent or suspending cells.
The standard curve of native cAMP or unlabeled cAMP produced by cells competed with d2-labeled cAMP red receptors to bind monoclonal anti-cAMP Eu3+ cryptate donors, and the specific signal was inversely proportional to the concentration of cAMP in standard or tested samples.
Human GLP-1R encoding sequence (NCBI reference sequence NP_002053.3) was subcloned into pEGFP-N1 (tsingke), and the cell line stably expressing the receptor was isolated. The expression density of GLP-1R was confirmed by the expression of GFP observed under a fluorescence microscope.
Cells were collected from a T25 tissue culture flask and centrifuged at room temperature at 1000 rpm for 5 minutes. The cell precipitates were then re-suspended in 1 mL of the stimulating buffer. 20 μL sample of cell suspension was counted on a counter STAR IC 1000 to determine the cell viability and the cell count per mL. The remaining cell suspension was then regulated with the stimulating buffer to deliver 2000 living cells per well using a multi-channel pipette. 5 μL of the cell suspension was added to each well of the plate which already contained the compound. The plate was sealed and incubated at 37° C. with 5% CO2 for 30 minutes.
After 30 minutes of incubation, 5 μL of d2-labeled cAMP and 5 μL of anti-cAMP cryptate (both 1: 20 diluted in the cell lysis buffer) were added to each well of the plate. The plate was then incubated at room temperature for 60 minutes, and the changes of HTRF signal were read with Tecan Spark reader: absorbance values at 340 nm (excitation)/at 615 nm and 665 nm (emission). Raw data were converted into nM cAMP by interpolation from the cAMP standard curve, and the effect in percentage was determined relative to the saturated concentration of the complete agonist GLP-17˜37 (400 nM) contained in each plate. Determination of EC50 was performed based on the agonist dose-response curve, which was analyzed using a four-parameter logical dose-response equation with a curve fitting program.
The test data presented the results in the form of a geometric mean (EC50s) based on the number of repetition times.

Sequence of Human GLP-1R (P43220 24-463): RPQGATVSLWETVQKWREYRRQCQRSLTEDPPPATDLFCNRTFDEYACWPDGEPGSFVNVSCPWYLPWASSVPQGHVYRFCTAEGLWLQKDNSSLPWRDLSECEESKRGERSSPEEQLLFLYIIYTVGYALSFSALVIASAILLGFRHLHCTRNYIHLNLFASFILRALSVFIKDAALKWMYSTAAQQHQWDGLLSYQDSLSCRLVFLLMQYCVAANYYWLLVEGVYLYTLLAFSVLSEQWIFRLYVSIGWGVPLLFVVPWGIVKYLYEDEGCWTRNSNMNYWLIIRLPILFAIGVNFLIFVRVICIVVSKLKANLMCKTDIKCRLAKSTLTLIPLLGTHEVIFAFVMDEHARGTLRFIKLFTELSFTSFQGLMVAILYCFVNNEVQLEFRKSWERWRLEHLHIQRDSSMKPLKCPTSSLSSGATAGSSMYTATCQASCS

| Compound | EC50 | Emax |
| --- | --- | --- |
| CC(=O)c1ccc(COc2cccc(N3CCN(Cc4nc5ccc(C(=O)O)cc5n4C[C@@H]4CCO4)[C@@H](C)C3)n2)c(F)c1 [Compound 28, 2-(((S)-4-(6-((4-acetyl-2-fluorobenzyl)oxy)pyridin-2-yl)-2-methylpiperazin-1-yl)methyl)-1-(((S)-oxetan-2-yl)methyl)-1H-benzo[d]imidazole-6-carboxylic acid] | 0.3 nM | 95.2% |
| CN1CCC(C(=O)c2ccc(COc3cccc(C4CCN(Cc5nc6ccc(C(=O)O)cc6n5C[C@@H]5CCO5)CC4)n3)c(F)c2)CC1 [Compound 29, (S)-2-((4-(6-((2-fluoro-4-(1-methylpiperidin-4-carbonyl)benzyl)oxy)pyridin-2-yl)piperidin-1-yl)methyl)-1-(oxetan-2-ylmethyl)-1H-benzo[d]imidazole-6-carboxylic acid] | – | 7.12% |
| CCOc1cc(C(C)=O)ccc1COc1cccc(C2CCN(Cc3nc4ccc(C(=O)O)cc4n3C[C@@H]3CCO3)CC2)n1 [Compound 30, (S)-2-((4-(6-((4-acetyl-2-ethoxybenzyl)oxy)pyridin-2-yl)piperidin-1-yl)methyl)-1-(oxetan-2-ylmethyl)-1H-benzo[d]imidazole-6-carboxylic acid] | 0.91 nM | 112% |
| CC(=O)c1ccc(COc2cccc(C3CCN(Cc4nc5ccc(C(=O)O)cc5n4C[C@@H]4CCO4)CC3)n2)c(OC2CC2)c1 [Compound 31, (S)-2-((4-(6-((4-acetyl-2-cyclopropoxybenzyl)oxy)pyridin-2-yl)piperidin-1-yl)methyl)-1-(oxetan-2-ylmethyl)-1H-benzo[d]imidazole-6-carboxylic acid] | 18.5 nM | 75.4% |
| COc1cc(C(=O)C(C)C)ccc1COc1cccc(C2CCN(Cc3nc4ccc(C(=O)O)cc4n3C[C@@H]3CCO3)CC2)n1 [Compound 32, (S)-2-((4-(6-((4-isobutyryl-2-methoxybenzyl)oxy)pyridin-2-yl)piperidin-1-yl)methyl)-1-(oxetan-2-ylmethyl)-1H-benzo[d]imidazole-6-carboxylic acid] | 416 nM | 102% |
| O=C(O)c1ccc2nc(CN3CCC(c4cccc(OCc5ccc(C(=O)C6CC6)cc5F)n4)CC3)n(C[C@@H]3CCO3)c2n1 [Compound 33, (S)-2-((4-(6-((4-(cyclopropanecarbonyl)-2-fluorobenzyl)oxy)pyridin-2-yl)piperidin-1-yl)methyl)-3-(oxetan-2-ylmethyl)-3H-imidazo[4,5-b]pyridine-5-carboxylic acid] | 1.59 nM | 92.9% |
| CCn1cnc(Cn2c(CN3CCC(c4cccc(OCc5ccc(C(=O)C6CC6)cc5F)n4)CC3)nc3ccc(C(=O)O)cc32)c1 [Compound 35, 2-((4-(6-((4-(cyclopropanecarbonyl)-2-fluorobenzyl)oxy)pyridin-2-yl)piperidin-1-yl)methyl)-1-((1-ethyl-1H-imidazol-4-yl)methyl)-1H-benzo[d]imidazole-6-carboxylic acid] | 32 nM | – |
| COc1cc(C(=O)C2CC2)cc(F)c1COc1cccc(C2CCN(Cc3nc4ccc(C(=O)O)cc4n3C[C@@H]3CCO3)CC2)n1 [Compound 36, (S)-2-((4-(6-((4-(cyclopropanecarbonyl)-2-fluoro-6-methoxybenzyl)oxy)pyridin-2-yl)piperidin-1-yl)methyl)-1-(oxetan-2-ylmethyl)-1H-benzo[d]imidazole-6-carboxylic acid] | 20.4 nM | 84.9% |
| COc1cc(COc2cccc(C3CCN(Cc4nc5ccc(C(=O)O)cc5n4C[C@@H]4CCO4)CC3)n2)c(F)cc1C(=O)C1CC1 [Compound 37, (S)-2-((4-(6-((4-(cyclopropanecarbonyl)-2-fluoro-5-methoxybenzyl)oxy)pyridin-2-yl)piperidin-1-yl)methyl)-1-(oxetan-2-ylmethyl)-1H-benzo[d]imidazole-6-carboxylic acid] | 228 nM | 68.5% |
